Data: US20220193072A1, “METHODS OF TREATING BREAST CANCER WITH TETRAHYDRONAPHTHALENE DERIVATIVES AS ESTROGEN RECEPTOR DEGRADER” (Arvinas Operations, Inc., priority 2020, published 2022)

Legend:
[1] = test system: MCF7 cells; experiment: Luminescence-based MCF7 cell proliferation assay, dose-response matrix; conditions: 5 days (120 hours)
Method: MCF7 cells were seeded at a density of 2×10^4 cells in 200 μL of media per well in 2 technical replicate, 96-well black, clear-bottom plates and incubated overnight at 37° C. in a 5% CO2 incubator. […] DMSO was used as the vehicle control. The plates were then incubated for 5 days at 37° C. in a 5% CO2 incubator.
The plates were equilibrated to room temperature for approximately 30 minutes. 50 μL of Cell-Titer Glo (Promega) was added to all wells of the plates, covered with aluminum foil and shaken gently by hand for less than 1 minute. The plates were then incubated for 10 minutes at room temperature. Luminescence was recorded using Envision Multi Label Reader. To assess cell viability, luminescence values for drug-treated wells were normalized to average luminescence of vehicle (DMSO) wells to obtain percent viability relative to control cells. The data were analyzed with the Combenefit software.

[2] = test system: tamoxifen-resistant MCF7 xenografts; experiment: Tamoxifen-resistant MCF7 orthotopic xenograft tumor growth inhibition; type: in vivo, Nu/Nu mice
Method: Species: Ovariectomized Nu/Nu female mice. Animal handling: Axial mammary fat pad implantation of tamoxifen-resistant tumor fragment (from E45 passage. SC per mouse. Tamoxifen pellet (5 mg, 60-day release) was implanted under the same anesthesia as tumor fragment (pellet—dorsal; tumor—ventral).
Dosing: Oral (gavage), once a day for 28 days (QD×28)
(§1) Sampling: Tumors were measured twice weekly. Terminal sacrifice was ˜18 hr after last dose; tumors were harvested, divided, and flash frozen. ERα levels were determined by immunoblotting (see Appendix 1 for details).

[3] = molecular target: T1, ERα (Homo sapiens, UniProt P03372); experiment: ERα levels in tamoxifen-resistant MCF7 xenografts (immunoblot); type: in vivo, Nu/Nu mice; conditions: tamoxifen-resistant MCF7, 30 mg/kg, study termination
T1 construct: robustly degrades ER in ER-positive breast cancer cell lines; endogenous in cells; host or cells: MCF7, T47D (cell culture); MCF7 and tamoxifen-resistant MCF7 xenograft tumours in mice
T1 sequence (P03372 1-595): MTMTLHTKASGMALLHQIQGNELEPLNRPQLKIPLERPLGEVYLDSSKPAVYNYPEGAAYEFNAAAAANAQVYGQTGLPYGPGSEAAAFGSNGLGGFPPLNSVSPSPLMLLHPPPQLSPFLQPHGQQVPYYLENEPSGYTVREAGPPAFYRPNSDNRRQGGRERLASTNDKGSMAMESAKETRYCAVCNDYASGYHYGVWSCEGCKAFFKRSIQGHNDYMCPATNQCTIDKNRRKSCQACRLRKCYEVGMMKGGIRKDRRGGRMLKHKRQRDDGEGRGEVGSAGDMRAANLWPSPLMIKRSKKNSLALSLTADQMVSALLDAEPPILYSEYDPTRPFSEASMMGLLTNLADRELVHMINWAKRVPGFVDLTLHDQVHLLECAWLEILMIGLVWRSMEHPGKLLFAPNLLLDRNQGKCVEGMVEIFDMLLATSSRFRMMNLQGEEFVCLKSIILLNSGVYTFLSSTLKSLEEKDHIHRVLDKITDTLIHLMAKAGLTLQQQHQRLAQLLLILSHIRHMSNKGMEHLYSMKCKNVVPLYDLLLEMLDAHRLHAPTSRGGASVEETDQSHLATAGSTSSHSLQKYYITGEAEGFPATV
Method: At study termination, the tumors were removed from the mice, and ERα levels were determined by immunoblotting the tumor homogenates. […] ERα levels from the various compound arms were compared to vehicle-treated animals by analyzing the tumor lysates on separate immunoblots (graphs in FIG. 10, FIG. 11, and FIG. 12 depict data from individual immunoblots) and the average ERα levels with standard deviation is shown.
as §1
Flash frozen tumors were removed from −80° C. storage and placed on dry ice. RIPA lysis buffer and Halt protease inhibitors were used at 400 μl per tumor sample. A steel ball (5 mm) was placed in each sample for tissue disruption. Samples were lysed with TissueLyzer at 24 Hz for 4 minutes. The homogenization was stopped half way through the process and the block flipped over for the duration of the process. […] Lysates were then measured for total protein concentration by BCA (per manufacturer's protocol). […]
Protein was transferred from gels to nitrocellulose with Bio-Rad Turbo on default setting. […] The blots were cut so that beta-actin and ERα can be detected from the same lane/sample. […]

[4] = Compound (I-c) 30 mg/kg oral QD x 28

Compound: O=C1CC[C@H](N2Cc3cc(N4CCN(CC5CCN(c6ccc([C@@H]7c8ccc(O)cc8CC[C@@H]7c7ccccc7)cc6)CC5)CC4)ccc3C2=O)C(=O)N1 [Compound (I-c), (3S)-3-[5-[4-[[1-[4-[(1R,2S)-6-hydroxy-2-phenyl-tetralin-1-yl]phenyl]-4-piperidyl]methyl]piperazin-1-yl]-1-oxo-isoindolin-2-yl]piperidine-2,6-dione]
- MCF7 cell proliferation, single agent [1]: dose-dependent decrease
- Day 28 Tumor volume (mean ± SD) [2, 4]: 361 ± 181 mm^3
- TGI (% vehicle) [2, 4]: 65 % vehicle
- tumor growth inhibition (TGI) ([2]; tamoxifen-resistant MCF7, 30 mg/kg/day oral, 28 days): 65%
- reduction of tumor ERα levels vs vehicle [3]: 73%
